The results in this text go back to ChEMBL document CHEMBL5365523, “Design of a structure-activity relationship model of vitamin K epoxide reductase (VKORC1) inhibitors combining chemical synthesis of new compounds, enzymatic assays and molecular modelling” (Bioorg Med Chem, 2023).

In data set [1] the target is Vitamin K epoxide reductase complex subunit 1 (Homo sapiens, UniProt Q9BQB6). The experiment in a line: Inhibition of recombinant human wild-type VKORC1 expressed in Pichia pastoris membrane incubated for 30 mins in presence of presence of dithiothreitol by LC-APCI/MS/MS analysis. The format is cell membranes.
A short description of data set [2]: Metabolic stability in rat hepatocytes assessed as half life. In kind it is ADME, cell-based, Hepatocyte.

Usually IC50 stands for the midpoint of a concentration-inhibition curve. One may read the half-life as how long it takes for the measured level to halve.

Chain of Vitamin K epoxide reductase complex subunit 1 (Q9BQB6 whole entry, one chain of several): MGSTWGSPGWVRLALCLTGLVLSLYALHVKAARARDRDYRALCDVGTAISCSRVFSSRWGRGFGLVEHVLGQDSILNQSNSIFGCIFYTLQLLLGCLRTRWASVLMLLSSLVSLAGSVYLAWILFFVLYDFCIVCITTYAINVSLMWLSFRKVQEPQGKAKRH

As to `O=c1oc2ccccc2c(O)c1C1CC(c2ccc(-c3ccc(Br)cc3)cc2)Cc2ccccc21` (stereo not given) [BRODIFACOUM], the half-inhibitory concentration (IC50) in data set [1] was 150 nM. On to `CC(O)CC(c1ccccc1)c1c(O)c2ccccc2oc1=O` (stereo not given) [WARFARIN ALCOHOL], for which the IC50 in data set [1] stood at 12500 nM. In the case of `COc1ccc(Cc2c(O)c3ccccc3oc2=O)cc1`, the half-inhibitory concentration (IC50) in data set [1] came out at 2720 nM. On the same count and under the same terms, then `O=c1oc2ccccc2c(O)c1Cc1ccc(C(F)(F)F)cc1`, with 498 nM. Same read-out and setting: for `CC(C)=CCC/C(C)=C\CC/C(C)=C\Cc1c(O)c2ccccc2oc1=O` the value was 98 nM; for `CC(c1ccccc1)c1c(O)c2ccccc2oc1=O` (stereo not given), 1530 nM. Take `O=c1oc2ccccc2c(O)c1C1CC(c2ccc(-c3ccccc3)cc2)Cc2ccccc21` (stereo not given): the half-life in data set [2] was 118 days. Turning to `O=c1oc2ccccc2c(O)c1C1CC(c2ccc(OCc3ccc(C(F)(F)F)cc3)cc2)Cc2ccccc21` (stereo not given), in data set [2], the half-life is 215 days. As to `O=c1oc2ccccc2c(O)c1Cc1ccc2c(c1)OCO2`, the IC50 in data set [1] came to 873 nM.

For `O=c1oc2ccccc2c(O)c1Cc1cccnc1`, the IC50 in data set [1] stood at 23900 nM. Same read-out and setting: for `O=c1oc2ccccc2c(O)c1Cc1ccc(Br)cc1` the value was 643 nM; for `COc1cccc(Cc2c(O)c3ccccc3oc2=O)c1`, 5530 nM. For the molecule `CSc1ccc(Cc2c(O)c3ccccc3oc2=O)cc1`, the IC50 in data set [1] worked out at 527 nM. `CC(C)=CCc1c(O)c2ccccc2oc1=O` [ISOPRENYLCOUMARIN]: in data set [1], the IC50 came to 79000 nM. For the molecule `O=c1oc2ccccc2c(O)c1C(CC(O)c1ccc(-c2ccc(Br)cc2)cc1)c1ccccc1` (stereo not given) [BROMODIOLONE], the half-life in data set [2] was 170 days.
